Data: the NIST ThermoML archive (doi:10.1021/acs.jced.7b00227)
Numbers after ± are expanded uncertainties.

How the values were obtained:
[1] = for Normal melting temperature: DTA
[2] = Molar enthalpy of transition or fusion; conditions: Crystal; DSC

O=Cc1ccccc1O [2-hydroxybenzaldehyde]
[1]
Conditions	vapor or sublimation pressure [kPa]
264.55 K, Crystal, Closed cell (Static) method	0.00232 ± 0.00013
266.52 K, Crystal, Closed cell (Static) method	0.00319 ± 0.00016
266.54 K, Metastable liquid, Closed cell (Static) method	0.00505 ± 0.0003
268.49 K, Crystal, Closed cell (Static) method	0.00453 ± 0.0002
268.5 K, Metastable liquid, Closed cell (Static) method	0.00606 ± 0.00034
270.45 K, Crystal, Closed cell (Static) method	0.00599 ± 0.00025
270.45 K, Metastable liquid, Closed cell (Static) method	0.00727 ± 0.00037
272.44 K, Metastable liquid, Closed cell (Static) method	0.00884 ± 0.00041
274.4 K, Closed cell (Static) method, Liquid	0.01038 ± 0.00046
276.37 K, Closed cell (Static) method, Liquid	0.01235 ± 0.00052
278.29 K, Closed cell (Static) method, Liquid	0.01469 ± 0.00057
280.27 K, Closed cell (Static) method, Liquid	0.01734 ± 0.0006
282.24 K, Closed cell (Static) method, Liquid	0.02049 ± 0.00065
284.23 K, Closed cell (Static) method, Liquid	0.02411 ± 0.0007
286.21 K, Closed cell (Static) method, Liquid	0.02842 ± 0.00077
288.16 K, Closed cell (Static) method, Liquid	0.03343 ± 0.00084
290.13 K, Closed cell (Static) method, Liquid	0.03878 ± 0.00092
292.14 K, Closed cell (Static) method, Liquid	0.0453 ± 0.001
294.09 K, Closed cell (Static) method, Liquid	0.05232 ± 0.0011
296 K, Closed cell (Static) method, Liquid	0.06145 ± 0.0013
298.06 K, Closed cell (Static) method, Liquid	0.0702 ± 0.0014
300.04 K, Closed cell (Static) method, Liquid	0.08175 ± 0.0016
302.02 K, Closed cell (Static) method, Liquid	0.09355 ± 0.0018
304.24 K, Closed cell (Static) method, Liquid	0.1075 ± 0.002
305.97 K, Closed cell (Static) method, Liquid	0.1228 ± 0.0022
307.92 K, Closed cell (Static) method, Liquid	0.1409 ± 0.0021
309.88 K, Closed cell (Static) method, Liquid	0.1603 ± 0.0023
311.9 K, Closed cell (Static) method, Liquid	0.1832 ± 0.0025
313.81 K, Closed cell (Static) method, Liquid	0.2071 ± 0.0027
315.78 K, Closed cell (Static) method, Liquid	0.2358 ± 0.0029
317.77 K, Closed cell (Static) method, Liquid	0.2661 ± 0.0032
319.78 K, Closed cell (Static) method, Liquid	0.3014 ± 0.0035
321.96 K, Closed cell (Static) method, Liquid	0.3441 ± 0.0039
323.95 K, Closed cell (Static) method, Liquid	0.3875 ± 0.0043
325.91 K, Closed cell (Static) method, Liquid	0.4352 ± 0.0047
327.88 K, Closed cell (Static) method, Liquid	0.4884 ± 0.0051
329.84 K, Closed cell (Static) method, Liquid	0.5465 ± 0.0057
331.84 K, Closed cell (Static) method, Liquid	0.611 ± 0.0062
333.81 K, Closed cell (Static) method, Liquid	0.682 ± 0.0068
335.78 K, Closed cell (Static) method, Liquid	0.7604 ± 0.0075
337.76 K, Closed cell (Static) method, Liquid	0.846 ± 0.0083
339.74 K, Closed cell (Static) method, Liquid	0.9402 ± 0.0091
341.67 K, Closed cell (Static) method, Liquid	1.042 ± 0.01

Conditions	Normal melting temperature [°C]
[1], Crystal	-0.8 ± 0.5

Conditions	Molar enthalpy of transition or fusion [kJ/mol]
[2]	13.3 ± 0.9

O=Cc1cccc(O)c1 [3-hydroxybenzaldehyde]
[1]
Conditions	vapor or sublimation pressure [kPa]
309.13 K, Crystal, Calculated from knudsen effusion weight loss	8.9e-05 ± 2e-05
311.29 K, Crystal, Calculated from knudsen effusion weight loss	0.000118 ± 2e-05
313.21 K, Crystal, Calculated from knudsen effusion weight loss	0.00015 ± 2.1e-05
315.13 K, Crystal, Calculated from knudsen effusion weight loss	0.000189 ± 2.1e-05
317.29 K, Crystal, Calculated from knudsen effusion weight loss	0.000243 ± 2.2e-05
319.2 K, Crystal, Calculated from knudsen effusion weight loss	0.000308 ± 2.3e-05
321.13 K, Crystal, Calculated from knudsen effusion weight loss	0.00039 ± 2.4e-05
323.29 K, Crystal, Calculated from knudsen effusion weight loss	0.00049 ± 2.6e-05
324.86 K, Crystal, Closed cell (Static) method	0.00061 ± 0.00011
325.23 K, Crystal, Calculated from knudsen effusion weight loss	0.000616 ± 3e-05
326.85 K, Crystal, Closed cell (Static) method	0.00076 ± 0.00012
327.14 K, Crystal, Calculated from knudsen effusion weight loss	0.000763 ± 3.4e-05
328.83 K, Crystal, Closed cell (Static) method	0.00094 ± 0.00012
329.29 K, Crystal, Calculated from knudsen effusion weight loss	0.000957 ± 3.9e-05
330.84 K, Crystal, Closed cell (Static) method	0.00116 ± 0.00012
331.22 K, Crystal, Calculated from knudsen effusion weight loss	0.001188 ± 9.6e-05
332.78 K, Crystal, Closed cell (Static) method	0.00142 ± 0.00013
334.76 K, Crystal, Closed cell (Static) method	0.00176 ± 0.00013
336.76 K, Crystal, Closed cell (Static) method	0.00219 ± 0.00014
338.72 K, Crystal, Closed cell (Static) method	0.00269 ± 0.00016
340.73 K, Crystal, Closed cell (Static) method	0.00336 ± 0.00018
342.63 K, Crystal, Closed cell (Static) method	0.00405 ± 0.0002
344.71 K, Crystal, Closed cell (Static) method	0.00495 ± 0.00023
346.64 K, Crystal, Closed cell (Static) method	0.006 ± 0.00026
348.61 K, Crystal, Closed cell (Static) method	0.00733 ± 0.00031
350.55 K, Crystal, Closed cell (Static) method	0.00897 ± 0.00037
352.54 K, Crystal, Closed cell (Static) method	0.01085 ± 0.00044
354.49 K, Crystal, Closed cell (Static) method	0.01289 ± 0.00052
356.45 K, Crystal, Closed cell (Static) method	0.01575 ± 0.00056
358.45 K, Crystal, Closed cell (Static) method	0.01898 ± 0.00061
360.41 K, Crystal, Closed cell (Static) method	0.02275 ± 0.00067
362.4 K, Crystal, Closed cell (Static) method	0.02727 ± 0.00074
364.34 K, Crystal, Closed cell (Static) method	0.03226 ± 0.00081
366.32 K, Crystal, Closed cell (Static) method	0.03884 ± 0.00091
368.21 K, Crystal, Closed cell (Static) method	0.04637 ± 0.001
368.31 K, Metastable liquid, Closed cell (Static) method	0.05807 ± 0.0012
370.35 K, Metastable liquid, Closed cell (Static) method	0.06605 ± 0.0013
372.25 K, Metastable liquid, Closed cell (Static) method	0.07435 ± 0.0015
374.24 K, Metastable liquid, Closed cell (Static) method	0.08475 ± 0.0016
376.14 K, Metastable liquid, Closed cell (Static) method	0.09434 ± 0.0018
378.15 K, Closed cell (Static) method, Liquid	0.1083 ± 0.002
380.15 K, Closed cell (Static) method, Liquid	0.1217 ± 0.0022
382.09 K, Closed cell (Static) method, Liquid	0.1367 ± 0.0021
384.06 K, Closed cell (Static) method, Liquid	0.1536 ± 0.0022
386.07 K, Closed cell (Static) method, Liquid	0.1727 ± 0.0024
388 K, Closed cell (Static) method, Liquid	0.1931 ± 0.0026
389.95 K, Closed cell (Static) method, Liquid	0.2148 ± 0.0028
391.96 K, Closed cell (Static) method, Liquid	0.2415 ± 0.003
395.88 K, Closed cell (Static) method, Liquid	0.3002 ± 0.0035
399.75 K, Closed cell (Static) method, Liquid	0.3687 ± 0.0041
403.71 K, Closed cell (Static) method, Liquid	0.454 ± 0.0048
405.31 K, Closed cell (Static) method, Liquid	0.49 ± 0.0052
407.66 K, Closed cell (Static) method, Liquid	0.5539 ± 0.0057
409.61 K, Closed cell (Static) method, Liquid	0.618 ± 0.0063
411.6 K, Closed cell (Static) method, Liquid	0.6754 ± 0.0068
413.56 K, Closed cell (Static) method, Liquid	0.751 ± 0.0074
415.52 K, Closed cell (Static) method, Liquid	0.814 ± 0.008
417.46 K, Closed cell (Static) method, Liquid	0.902 ± 0.0087
419.41 K, Closed cell (Static) method, Liquid	0.994 ± 0.01

Conditions	Normal melting temperature [°C]
[1], Crystal	104.5 ± 0.5

Conditions	Molar enthalpy of transition or fusion [kJ/mol]
[2]	25.6 ± 1
